Columns and labels:
Adenosine receptor A1 = target: T1, Adenosine receptor A1 (Homo sapiens, UniProt P30542); type: cell membranes, CHO, Membrane; settings: cho;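 also: radioligand binding assay at the adenosine A1 receptor, with DPCPX serving as the labelled ligand; in other assays of this panel Not Active means under 50% inhibition at 10 µM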
T1 sequence (P30542 whole entry): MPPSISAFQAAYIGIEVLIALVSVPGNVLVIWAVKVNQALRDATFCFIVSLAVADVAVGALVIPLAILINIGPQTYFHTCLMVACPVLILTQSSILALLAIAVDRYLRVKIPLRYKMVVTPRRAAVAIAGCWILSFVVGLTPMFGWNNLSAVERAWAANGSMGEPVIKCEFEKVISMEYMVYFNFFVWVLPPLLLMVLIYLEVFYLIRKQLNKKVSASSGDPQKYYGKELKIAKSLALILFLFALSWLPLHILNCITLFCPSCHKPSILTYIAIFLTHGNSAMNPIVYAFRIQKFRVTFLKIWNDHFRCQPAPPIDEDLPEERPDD

[1] = DRUGMATRIX: Serotonin (5-Hydroxytryptamine) 5-HT3 radioligand binding (ligand: [3H] GR-65630); type: cell membranes, Membrane; settings: hek293; Not Active = under 50% inhibition at 10 µM
[2] = target: T2, Vasoactive intestinal polypeptide receptor 1 (Homo sapiens, UniProt P32241); type: cell membranes, Membrane; settings: ht-29; also: in other assays of this panel Not Active means under 50% inhibition at 10 µM
T2 sequence (P32241 whole entry): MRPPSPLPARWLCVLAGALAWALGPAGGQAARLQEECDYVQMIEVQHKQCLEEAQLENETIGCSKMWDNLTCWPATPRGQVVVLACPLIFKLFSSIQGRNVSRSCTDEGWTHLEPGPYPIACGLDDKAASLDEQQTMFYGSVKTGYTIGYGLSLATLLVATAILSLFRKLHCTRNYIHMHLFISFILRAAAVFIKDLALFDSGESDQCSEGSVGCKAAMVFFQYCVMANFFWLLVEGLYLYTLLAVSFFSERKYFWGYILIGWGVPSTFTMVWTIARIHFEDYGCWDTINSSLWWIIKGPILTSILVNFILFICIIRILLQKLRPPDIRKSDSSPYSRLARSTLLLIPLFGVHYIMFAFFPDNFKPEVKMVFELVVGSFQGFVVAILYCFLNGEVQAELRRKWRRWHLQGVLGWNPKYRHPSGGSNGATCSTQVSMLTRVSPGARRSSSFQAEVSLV

[3] = DRUGMATRIX: Imidazoline I2, Central radioligand binding (ligand: [3H] Idazoxan); type: cell membranes, Rattus norvegicus, Wistar, Cerebral cortex, Membrane; settings: Not Active = under 50% inhibition at 10 µM
Adenosine receptor A2a = Adenosine receptor A2a (Homo sapiens, UniProt P29274); assay: DRUGMATRIX: Adenosine A2A radioligand binding (ligand: […]); type: cell membranes, HEK293, Membrane; settings: hek293; Not Active = under 50% inhibition at 10 µM
Chain of Adenosine receptor A2a (P29274 whole entry): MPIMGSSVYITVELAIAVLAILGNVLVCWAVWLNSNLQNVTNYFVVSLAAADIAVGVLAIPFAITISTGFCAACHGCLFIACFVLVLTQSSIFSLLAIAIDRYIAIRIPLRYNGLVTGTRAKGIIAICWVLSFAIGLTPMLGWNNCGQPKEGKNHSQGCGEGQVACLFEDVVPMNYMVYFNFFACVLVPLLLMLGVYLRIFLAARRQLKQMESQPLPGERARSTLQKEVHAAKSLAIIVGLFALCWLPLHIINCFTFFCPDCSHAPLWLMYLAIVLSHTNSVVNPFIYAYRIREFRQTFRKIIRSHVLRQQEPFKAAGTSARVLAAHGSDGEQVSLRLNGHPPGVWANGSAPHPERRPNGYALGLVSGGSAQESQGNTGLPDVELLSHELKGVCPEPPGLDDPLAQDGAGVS

[4] = target: Matrix metalloproteinase-9 (Homo sapiens, UniProt P14780); type: cell-based;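 also: inhibition of isolated MMP-9 enzyme activity toward a synthetic peptide substrate, from the DrugMatrix protease screening panel; in other assays of this panel Not Active means under 50% inhibition at 10 µM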
Chain of Matrix metalloproteinase-9 (P14780 whole entry): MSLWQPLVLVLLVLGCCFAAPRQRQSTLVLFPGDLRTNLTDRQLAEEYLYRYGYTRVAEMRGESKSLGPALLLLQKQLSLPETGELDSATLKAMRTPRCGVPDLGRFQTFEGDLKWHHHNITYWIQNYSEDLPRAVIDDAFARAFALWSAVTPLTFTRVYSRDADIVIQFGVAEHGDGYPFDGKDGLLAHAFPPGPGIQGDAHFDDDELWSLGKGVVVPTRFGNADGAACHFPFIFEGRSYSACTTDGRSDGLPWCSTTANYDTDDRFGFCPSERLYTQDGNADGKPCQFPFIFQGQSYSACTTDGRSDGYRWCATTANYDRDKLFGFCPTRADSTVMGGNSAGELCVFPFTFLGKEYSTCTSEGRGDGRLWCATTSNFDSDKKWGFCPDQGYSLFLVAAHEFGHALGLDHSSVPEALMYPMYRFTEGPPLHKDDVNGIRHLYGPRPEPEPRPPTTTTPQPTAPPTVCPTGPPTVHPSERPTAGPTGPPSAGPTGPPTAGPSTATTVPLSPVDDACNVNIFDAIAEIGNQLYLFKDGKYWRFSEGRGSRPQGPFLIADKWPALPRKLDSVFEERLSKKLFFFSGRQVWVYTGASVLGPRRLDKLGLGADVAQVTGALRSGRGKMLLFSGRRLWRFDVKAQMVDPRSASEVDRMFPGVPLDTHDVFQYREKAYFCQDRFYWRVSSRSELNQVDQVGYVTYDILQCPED

[5] = DRUGMATRIX: Phosphodiesterase PDE4 enzyme inhibition (substrate: [3H]cAMP + cAMP); settings: u-937; Not Active = under 50% inhibition at 10 µM

Row | Compound | IC50 (Adenosine receptor A1) | IC50 [1] | Ki [1] | IC50 [2] | IC50 [3] | Ki [3] | IC50 (Adenosine receptor A2a) | IC50 [4] | IC50 [5] | Ki [5] | Ki (Adenosine receptor A1) | Ki [2] | Ki (Adenosine receptor A2a) | Ki [4] | IC50 ([3]; read-out: IC50) | Ki ([3]; read-out: Ki)
1 | CCN(CC)N=O [N-NITROSODIETHYLAMINE] | Not Active | Not Active | Not Active | Not Active | Not Active | Not Active | Not Active | Not Active | Not Active | Not Active | – | – | – | – | – | –
2 | C[C@]12CCC(=O)C[C@@H]1CC[C@@H]1[C@@H]2CC[C@]2(C)[C@@H](O)CC[C@@H]12 [STANOLONE] | Not Active | Not Active | Not Active | Not Active | Not Active | Not Active | Not Active | Not Active | Not Active | Not Active | – | – | – | – | – | –
3 | Cc1cccc(C)c1NC(=O)C(C)N (stereo unspecified) [TOCAINIDE] | Not Active | Not Active | Not Active | Not Active | Not Active | Not Active | Not Active | Not Active | Not Active | Not Active | – | – | – | – | – | –
4 | LEAD(IV) ACETATE | Not Active | Not Active | Not Active | Not Active | Not Active | Not Active | Not Active | Not Active | Not Active | Not Active | Not Active | Not Active | Not Active | Not Active | – | –
5 | CC#C[C@]1(O)CC[C@H]2[C@@H]3CCC4=CC(=O)CCC4=C3[C@@H](c3ccc(N(C)C)cc3)C[C@@]21C [MIFEPRISTONE] | Not Active | Not Active | Not Active | Not Active | Not Active | Not Active | Not Active | Not Active | Not Active | Not Active | – | – | – | – | – | –
6 | CS(=O)(=O)c1ccc(C2=C(c3ccccc3)C(=O)OC2)cc1 [ROFECOXIB] | Not Active | Not Active | Not Active | Not Active | Not Active | Not Active | Not Active | Not Active | Not Active | Not Active | – | – | – | – | – | –
7 | COC(=O)Nc1nc2ccc(C(=O)c3ccccc3)cc2[nH]1 [MEBENDAZOLE] | Not Active | Not Active | Not Active | Not Active | Not Active | Not Active | Not Active | Not Active | Not Active | Not Active | – | – | – | – | – | –
8 | CC(O)C(=O)O (stereo unspecified) [LACTIC ACID] | Not Active | Not Active | Not Active | Not Active | Not Active | Not Active | Not Active | Not Active | Not Active | Not Active | – | – | – | – | – | –
9 | CC(N)C12CC3CC(CC(C3)C1)C2 (stereo unspecified) [RIMANTADINE] | Not Active | Not Active | Not Active | Not Active | Not Active | Not Active | Not Active | Not Active | Not Active | Not Active | – | – | – | – | – | –
10 | CN1C[C@H](CNC(=O)OCc2ccccc2)C[C@@H]2c3cccc4c3c(cn4C)C[C@H]21 [METERGOLINE] | Not Active | Not Active | Not Active | Not Active | – | – | Not Active | Not Active | Not Active | Not Active | – | – | – | – | 1920 nM | 1280 nM
11 | Cc1cc2c(s1)Nc1ccccc1N=C2N1CCN(C)CC1 [OLANZAPINE] | Not Active | – | – | Not Active | – | – | Not Active | Not Active | – | – | – | – | – | – | – | –
12 | CNCCCC12CCC(c3ccccc31)c1ccccc12 [MAPROTILINE] | Not Active | – | – | Not Active | – | – | Not Active | Not Active | – | – | – | – | – | – | – | –
13 | CN(C)CCC=C1c2ccccc2COc2ccccc21 [DOXEPIN] | Not Active | – | – | Not Active | – | – | Not Active | Not Active | – | – | – | – | – | – | – | –
